Experimental data published in the CheMixHub viscosity set.

Assay: xn = mol fraction of the nth substance listed

CCOC(=O)CCl + Brc1ccccc1
viscosity [mPa·s], 101.3 kPa
Conditions | x1 = 0.1089 | x1 = 0.2034 | x1 = 0.3024 | x1 = 0.3976 | x1 = 0.5011 | x1 = 0.6018 | x1 = 0.6992 | x1 = 0.7963 | x1 = 0.8948
298.15 K | 1.079 | 1.079 | 1.08 | 1.082 | 1.085 | 1.087 | 1.092 | 1.096 | 1.098
303.15 K | 1.012 | 1.011 | 1.01 | 1.011 | 1.012 | 1.014 | 1.017 | 1.018 | 1.01
308.15 K | 0.947 | 0.943 | 0.94 | 0.938 | 0.938 | 0.942 | 0.941 | 0.941 | 0.939

CCCCCCCCN(CCCCCCCC)CCCCCCCC + C1CCCCC1
303.15 K, 101 kPa
Conditions | viscosity [mPa·s]
x2 = 0.1179 | 6.488
x2 = 0.1582 | 6.33
x2 = 0.3086 | 5.344
x2 = 0.4099 | 4.83
x2 = 0.5029 | 4.33
x2 = 0.6074 | 3.468
x2 = 0.7022 | 2.757
x2 = 0.8023 | 2.054
x2 = 0.902 | 1.416

CCCCOCCO + C1CCCCC1
viscosity [mPa·s], 101 kPa
Conditions | 298.15 K | 308.15 K
x1 = 0.0557 | 0.95 | 0.79
x1 = 0.1501 | 1.046 | 0.866
x1 = 0.2504 | 1.162 | 0.958
x1 = 0.3543 | 1.3 | 1.066
x1 = 0.4488 | 1.443 | 1.178
x1 = 0.5025 | 1.532 | 1.248
x1 = 0.5493 | 1.616 | 1.313
x1 = 0.6485 | 1.813 | 1.465
x1 = 0.7494 | 2.043 | 1.642
x1 = 0.8511 | 2.311 | 1.848
x1 = 0.9556 | 2.631 | 2.091

COC(=O)c1ccccc1 + C1CCCCC1
101 kPa, x1 = 0.5996
Conditions | viscosity [mPa·s]
303.15 K | 0.9344
308.15 K | 0.8826
313.15 K | 0.8403

c1ccc2c(c1)CCCC2 + C1CCCCC1
298.15 K, 101 kPa
Conditions | viscosity [mPa·s]
x1 = 0.1649 | 0.9811
x1 = 0.3447 | 1.127
x1 = 0.5442 | 1.324
x1 = 0.7597 | 1.619

C=CC(=O)OC(C)(C)C + C1CCOC1
viscosity [mPa·s], 101 kPa
Conditions | 293.15 K | 298.15 K | 303.15 K | 308.15 K | 313.15 K | 318.15 K
x2 = 0.0736 | 0.8645 | 0.7935 | 0.7273 | 0.6717 | 0.622 | 0.579
x2 = 0.1489 | 0.8229 | 0.757 | 0.6954 | 0.6433 | 0.5964 | 0.5554
x2 = 0.2121 | 0.7896 | 0.7278 | 0.6699 | 0.6206 | 0.5759 | 0.5365
x2 = 0.2773 | 0.7568 | 0.6992 | 0.6449 | 0.5984 | 0.5558 | 0.5179
x2 = 0.362 | 0.7164 | 0.664 | 0.6143 | 0.5711 | 0.5312 | 0.495
x2 = 0.4382 | 0.6823 | 0.6343 | 0.5886 | 0.5482 | 0.5105 | 0.4758
x2 = 0.5024 | 0.6551 | 0.6107 | 0.5681 | 0.53 | 0.494 | 0.4604
x2 = 0.5815 | 0.6237 | 0.5835 | 0.5446 | 0.5091 | 0.475 | 0.4427
x2 = 0.6532 | 0.597 | 0.5605 | 0.5247 | 0.4914 | 0.4589 | 0.4276
x2 = 0.7268 | 0.5716 | 0.5385 | 0.5058 | 0.4745 | 0.4435 | 0.4131
x2 = 0.7921 | 0.5505 | 0.5204 | 0.4902 | 0.4607 | 0.4308 | 0.4012
x2 = 0.8698 | 0.5273 | 0.5006 | 0.4732 | 0.4455 | 0.4168 | 0.3879
x2 = 0.9352 | 0.5094 | 0.4853 | 0.4601 | 0.4337 | 0.4059 | 0.3776

COC(=O)c1ccccc1 + C1CCOC1
viscosity [mPa·s], 100 kPa
Conditions | x1 = 0.0689 | x1 = 0.1417 | x1 = 0.2202 | x1 = 0.303 | x1 = 0.3932 | x1 = 0.493 | x1 = 0.6018 | x1 = 0.7225 | x1 = 0.8535
303.15 K | 0.496 | 0.562 | 0.638 | 0.727 | 0.829 | 0.951 | 1.096 | 1.262 | 1.446
308.15 K | 0.484 | 0.546 | 0.616 | 0.699 | 0.79 | 0.904 | 1.032 | 1.181 | 1.343
313.15 K | 0.443 | 0.505 | 0.567 | 0.641 | 0.729 | 0.83 | 0.943 | 1.078 | 1.22

CCCCCCBr + C1COCCO1
303.15 K, 101.3 kPa
Conditions | viscosity [mPa·s]
x2 = 0.1105 | 0.8848
x2 = 0.3021 | 0.8777
x2 = 0.4972 | 0.9007
x2 = 0.698 | 0.947
x2 = 0.8997 | 1.03

COC(=O)c1ccccc1 + C1COCCO1
viscosity [mPa·s], 100 kPa
Conditions | x1 = 0.0898 | x1 = 0.1468 | x1 = 0.228 | x1 = 0.3145 | x1 = 0.4054 | x1 = 0.5056 | x1 = 0.6161 | x1 = 0.7316 | x1 = 0.8597
303.15 K | 1.13 | 1.157 | 1.198 | 1.244 | 1.293 | 1.352 | 1.418 | 1.491 | 1.573
308.15 K | 1.038 | 1.066 | 1.106 | 1.147 | 1.192 | 1.246 | 1.308 | 1.376 | 1.449
313.15 K | 0.984 | 1.006 | 1.04 | 1.075 | 1.11 | 1.157 | 1.208 | 1.263 | 1.324

CCCCCCBr + C=C(C)C(=O)OC
303.15 K, 101 kPa
Conditions | viscosity [mPa·s]
x2 = 0.1439 | 0.8087
x2 = 0.2632 | 0.7611
x2 = 0.4885 | 0.6895
x2 = 0.5904 | 0.6665
x2 = 0.6826 | 0.6354
x2 = 0.8513 | 0.5709
x2 = 0.9171 | 0.5459

CCOCCOCCOCC + CC1COC(=O)O1
viscosity [mPa·s], 101.33 kPa
Conditions | 298.15 K | 308.15 K | 318.15 K
x1 = 0.013 | 2.474 | 2.024 | 1.703
x1 = 0.0542 | 2.418 | 1.982 | 1.658
x1 = 0.1089 | 2.353 | 1.923 | 1.605
x1 = 0.1594 | 2.288 | 1.875 | 1.555
x1 = 0.2136 | 2.225 | 1.827 | 1.506
x1 = 0.257 | 2.179 | 1.782 | 1.466
x1 = 0.3304 | 2.08 | 1.702 | 1.39
x1 = 0.4267 | 1.94 | 1.589 | 1.297
x1 = 0.497 | 1.833 | 1.504 | 1.227
x1 = 0.5874 | 1.717 | 1.404 | 1.152
x1 = 0.6907 | 1.589 | 1.306 | 1.076
x1 = 0.7876 | 1.474 | 1.219 | 1.01
x1 = 0.8704 | 1.377 | 1.148 | 0.957
x1 = 0.9264 | 1.316 | 1.101 | 0.922
x1 = 0.9628 | 1.289 | 1.071 | 0.901

C=CC(=O)OC(C)(C)C + CC#N
viscosity [mPa·s], 100 kPa
Conditions | 293.15 K | 298.15 K | 303.15 K | 308.15 K | 313.15 K | 318.15 K
x2 = 0.0772 | 0.8592 | 0.787 | 0.72 | 0.664 | 0.6141 | 0.571
x2 = 0.1496 | 0.8154 | 0.7472 | 0.684 | 0.631 | 0.5837 | 0.5427
x2 = 0.2216 | 0.7728 | 0.7087 | 0.6493 | 0.5994 | 0.5548 | 0.5161
x2 = 0.2983 | 0.7282 | 0.6684 | 0.6132 | 0.5668 | 0.5252 | 0.489
x2 = 0.3643 | 0.6903 | 0.6344 | 0.5828 | 0.5393 | 0.5003 | 0.4663
x2 = 0.4345 | 0.6506 | 0.5988 | 0.5511 | 0.5107 | 0.4745 | 0.4426
x2 = 0.5074 | 0.61 | 0.5624 | 0.5187 | 0.4816 | 0.4481 | 0.4186
x2 = 0.5769 | 0.5719 | 0.5284 | 0.4885 | 0.4544 | 0.4236 | 0.3963
x2 = 0.6465 | 0.5345 | 0.495 | 0.459 | 0.4278 | 0.3997 | 0.3746
x2 = 0.7141 | 0.4991 | 0.4635 | 0.4312 | 0.403 | 0.3775 | 0.3546
x2 = 0.7821 | 0.4645 | 0.4329 | 0.4044 | 0.3793 | 0.3565 | 0.3358
x2 = 0.8603 | 0.4264 | 0.3994 | 0.3753 | 0.354 | 0.3344 | 0.3164
x2 = 0.9345 | 0.3923 | 0.3699 | 0.3502 | 0.3324 | 0.3162 | 0.301

COC(=O)c1ccccc1 + CC#N
viscosity [mPa·s], 101.33 kPa
Conditions | x1 = 0.134 | x1 = 0.255 | x1 = 0.373 | x1 = 0.48 | x1 = 0.57 | x1 = 0.666 | x1 = 0.752 | x1 = 0.837 | x1 = 0.922
293.15 K | 0.444 | 0.476 | 0.515 | 0.624 | 0.676 | 0.805 | 0.958 | 1.128 | 1.508
303.15 K | 0.4 | 0.43 | 0.46 | 0.551 | 0.595 | 0.695 | 0.814 | 0.95 | 1.226
313.15 K | 0.365 | 0.387 | 0.41 | 0.5 | 0.521 | 0.608 | 0.701 | 0.811 | 1.016
323.15 K | 0.329 | 0.351 | 0.367 | 0.446 | 0.467 | 0.531 | 0.602 | 0.691 | 0.854

CC(C)OCCO + CC(=O)N(C)C
298.15 K, 101 kPa
Conditions | viscosity [mPa·s]
x1 = 0.0063 | 0.956
x1 = 0.014 | 0.97
x1 = 0.0243 | 0.983
x1 = 0.0518 | 1.016
x1 = 0.0792 | 1.049
x1 = 0.1131 | 1.092
x1 = 0.1712 | 1.167
x1 = 0.2095 | 1.225
x1 = 0.2923 | 1.336
x1 = 0.3534 | 1.422
x1 = 0.3673 | 1.443
x1 = 0.3996 | 1.494
x1 = 0.4419 | 1.555
x1 = 0.4958 | 1.63
x1 = 0.5445 | 1.704
x1 = 0.6028 | 1.782
x1 = 0.6671 | 1.871
x1 = 0.7594 | 1.973
x1 = 0.8097 | 2.044
x1 = 0.867 | 2.083
x1 = 0.9066 | 2.098
x1 = 0.9627 | 2.102
x2 = 0.006 | 2.106
x2 = 0.0146 | 2.105

CNC=O + CC(=O)N(C)C
viscosity [mPa·s], 101 kPa
Conditions | x2 = 0.0697 | x2 = 0.0811 | x2 = 0.1686 | x2 = 0.2571 | x2 = 0.3498 | x2 = 0.4488 | x2 = 0.545 | x2 = 0.6533 | x2 = 0.7606 | x2 = 0.8777
293.15 K | 1.824 | 1.81 | 1.709 | 1.612 | 1.516 | 1.422 | 1.337 | 1.252 | 1.176 | 1.101
303.15 K | 1.543 | 1.532 | 1.452 | 1.374 | 1.296 | 1.219 | 1.151 | 1.083 | 1.021 | 0.962
313.15 K | 1.325 | 1.316 | 1.252 | 1.188 | 1.125 | 1.063 | 1.007 | 0.95 | 0.9 | 0.85
323.15 K | 1.157 | 1.149 | 1.096 | 1.044 | 0.991 | 0.94 | 0.893 | 0.846 | 0.803 | 0.762
